The source of these data is PMC5823688 (Molecular pharmaceutics, 2017).

Test [1] deals with mitochondria of granta-519 tumor cells. Description: Cytochrome C release from mitochondria of tumor cells. It counts as cell-based. Particulars: 10 μM peptide; in comparison to a positive 1% Triton X-100 control; Figure S4.
Test [2] concerns SKOV3 cells. The conditions noted are these: 10 μM polymer, 72 h; FITC-annexin V, flow cytometry.
For test [3], the system named is 3T3 fibroblasts. The conditions noted are these: MTS; after 120 h of treatment.
Test [4] concerns caspase 3/7 activity in SKOV3 cells. The conditions noted are these: 0-10 μM polymer, 72 h.
The subject of test [5] is SKOV3 human ovarian cancer cells. Particulars: all polymer concentrations (0 to 10 μM), 96 h, MTS.

Regarding FLAhxMRPEI-WIAQELRRIGvDEFNAY [FLAhxBIM], in test [1], the “cytochrome C release” value is above 90%.
Consider “poly[(DEAEMA)-co-(BMA)]-b-[(PEGMA300)-c-(MaCath-BIM)] [PolCathBIM]”, for which the “cells staining positive for annexin V” value in test [2] came out at 87%. The “BIM-mediated cell death in 3T3 fibroblasts” value in test [3] was “no BIM-mediated cell death was observed”.
Turning to “poly[(DEAEMA)-co-(BMA)]-b-[(PEGMA300)-c-(MaCathScrBIM)] [PolCathScrBIM]”, in test [4], the “change in caspase 3/7 activity relative to untreated cultures” value is recorded as “no change”. The “cells staining positive for annexin V” value in test [2] is listed as 15%. Further, in test [5], the cell viability result is on record as “greater than 90%”.
